Data as given in patent publication US8318792B2, “Therapeutic agent for amyotrophic lateral sclerosis” (Nippon Medical School Foundation, priority 2006, dated 2012).

How the values were obtained:
Type in all cases: in vivo, mouse
G1H-G93A transgenic mice [1] = assay: Clinical symptomatological evaluation (day of onset, survival period, disease period, stage periods); conditions: for day of onset / disease period / survival period / time period of clinical symptomatological stage 1 / time period of clinical symptomatological stage 2 / time period of clinical symptomatological stage 3 / time period of clinical symptomatological stage 4 / time period of clinical symptomatological stage 5: average±SD
Description: 1) The procedure of concentration adjustment, and the amount and the procedure of administration of the compound (a) were as described below. As a base, 0.5% methylcellulose is prepared. 5 mg of the compound (a) is pulverized in an agate mortar, and then a small amount of 0.5% methylcellulose is added to form a complete suspension. Subsequently, a small amount of 0.5% methylcellulose is added gradually, so that finally 5 mg of the compound (a) is suspended in 10 mL of 0.5% methylcellulose. A sample of 5 mg of compound (a)/10 mL of 0.5% methylcellulose (5 mg/10 mL) was prepared by the above-described procedure, and thus the compound (a) was orally administered once a day in a dose of 5 mg per kg of the mouse body weight (5 mg/kg).
As the experimental animal, male transgenic mice over-expressing a high copy number (25 copies) of mutated human SOD1 gene with a G93A point mutation, i.e., B6SJL-TgN [SOD1-G93A]1Gur (G1H-G93A transgenic mice, JR2726; Hemizygote) (Gurney M E, et al., Science, 264, 1772-1775, 1994), were purchased from Jackson Laboratory (Bar Harbor, USA) and used. At the same time, wild-type male mice from the same litter, B6SJL-TgN[SOD1-G93A]1Gur (Wild-type), were also purchased from Jackson Laboratory and used.
The mice were subjected to a clinical symptomatological evaluation everyday. The clinical symptomatological evaluation was performed from one week after the arrival from Jackson Laboratory. […] The day of onset, the survival period and the disease period were indicated by the number of days. In regard to the indication of the number of days of the disease period, one day (one disease day) corresponds to within 24 hours from the onset (the “onset” is determined by the observation of the clinical symptomatological evaluation stage 1), and two days (two disease days) corresponds to more than 24 hours after and within 48 hours from the onset. Subsequent disease days after the onset were determined in the same manner.
The mice were divided into seven experimental groups, to which a placebo, the compound (a), compound (b), compound (c) or allopurinol was administered. That is, the seven groups consist of: an experimental group administered with placebo; a treatment experimental group administered with compound (a) before onset; a treatment experimental group administered with compound (a) after onset; a treatment experimental group administered with compound (b) before onset; a treatment experimental group administered with compound (c) before onset; a treatment experimental group administered with compound (c) after onset; and a treatment group administered with allopurinol before onset. Details of the respective groups will be described in the following.
Ten G1H-G93A transgenic mice were used. From the 80th day after birth, 5 mg/kg of the compound (a) was orally administered everyday. […]
Ten G1H-G93A transgenic mice were used. From the 80th day after birth, 5 mg/kg of the compound (b) was orally administered everyday.
Ten G1H-G93A transgenic mice were used. From the 80th day after birth, 5 mg/kg of the compound (c) was orally administered everyday. […]
Ten G1H-G93A transgenic mice were used. From the 80th day after birth, 5 mg/kg of allopurinol was orally administered everyday.
In regard to the results of the clinical symptomatological evaluation, the day of onset, the survival period (days taken to show quadriplegia and to reach the moribund state), the disease period (days taken to show quadriplegia and to reach the moribund state, from the day of onset), and the time periods for the respective stages of the clinical symptomatological evaluation, were indicated by the average±standard deviation. In regard to the results of the exercise tolerance test, the score values of the respective exercise tolerance tests, including the extension reflex test, inclined plane test, footprint test, rotarod test and beam balance test, were indicated by the average±standard deviation. […]

G1H-G93A transgenic mice [2] = assay: Exercise tolerance test: extension reflex test; conditions: for Extension reflex test score: 5 mg/kg oral daily from 80th day (before onset), score 0-2, 5 mg/kg
Description: (§1) The following five kinds of exercise tolerance tests were conducted every fifth day from the 70th day after birth to evaluate the ability to exercise in the respective exercise tolerance tests. That is, the days for the exercise tolerance tests were every fifth days, such as the 70th day, 75th day, 80th day, 85th day and so on, after birth. The exercise tolerance tests were conducted throughout the survival period, and the post-mortem evaluation was based on the definitions of the following five kinds of exercise tolerance tests.
As for extension reflex, extension of the hindlimbs is normally observed when a mouse is suspended in the air by its tail.
The evaluation of extension reflex test of the mice was performed based on the following criteria: Score 0=Extension reflex is recognized in both of the hindlimbs; Score 1=Extension reflex is recognized only one hindlimb; and Score 2=Extension reflex is not recognized in both of the hindlimbs. The post-mortem evaluation of the extension reflex test is defined as score 2.

G1H-G93A transgenic mice [3] = assay: Exercise tolerance test: footprint test; conditions: 5 mg/kg oral daily from 80th day (before onset), score 0-4
Description: as §1
Both hindlimbs of a mouse are dipped in a black ink bottle, and then the mouse is allowed to walk on white paper. The footprints of the two hindlimbs of the mouse after the walking are analyzed. […] The post-mortem evaluation of the footprint test is defined as score 4.

[4] = 5 mg/kg oral daily from 80th day after birth (before onset), Mann-Whitney's U test, log-rank test
[5] = 5 mg/kg oral daily from the day of onset (after onset), Mann-Whitney's U test, log-rank test
[6] = 5 mg/kg oral once a day from 80th day after birth (before onset)
[7] = 5 mg/kg oral once a day from the onset (after onset)

CC(C)(C)COc1ccc(-n2cc(C(=O)O)cn2)cc1C#N [compound (a), 1-[3-cyano-4-(2,2-dimethylpropoxy)phenyl]-1H-pyrazole-4-carboxylic acid]
time periods for the respective stages in comparison to placebo group (G1H-G93A transgenic mice [1]; 5 mg/kg oral daily from 80th day after birth (before onset), Mann-Whitney's U test): extended period of respective stages with significant difference
disease period extending effect in comparison to placebo group (G1H-G93A transgenic mice [1]; [4]): significant extension of the disease period
onset delaying effect in comparison to placebo group (G1H-G93A transgenic mice [1]; [4]): significant delaying of the day of onset
survival period extending effect in comparison to placebo group (G1H-G93A transgenic mice [1]; [4]): significant extension of the survival period
time periods for the respective stages in comparison to placebo group (G1H-G93A transgenic mice [1]; 5 mg/kg oral daily from the day of onset (after onset), Mann-Whitney's U test): extended period of stage 3 (P<0.05, Mann-Whitney's U test) and stage 4 (P<0.05, Mann-Whitney's U test) with significant differences
disease period extending effect in comparison to placebo group (G1H-G93A transgenic mice [1]; [5]): significant extension of the disease period
survival period extending effect in comparison to placebo group (G1H-G93A transgenic mice [1]; [5]): significant extension of the survival period
day of onset (G1H-G93A transgenic mice [1]; [6]): 113.0 ± 4.8 days
disease period (G1H-G93A transgenic mice [1]; [6]): 24.9 ± 3.1 days
survival period (G1H-G93A transgenic mice [1]; [6]): 136.9 ± 3.8 days
time period of clinical symptomatological stage 1 (G1H-G93A transgenic mice [1]; [6]): 7.5±0.7 days
time period of clinical symptomatological stage 2 (G1H-G93A transgenic mice [1]; [6]): 6.6±1.2 days
time period of clinical symptomatological stage 3 (G1H-G93A transgenic mice [1]; [6]): 5.4±1.1 days
time period of clinical symptomatological stage 4 (G1H-G93A transgenic mice [1]; [6]): 3.6±0.7 days
time period of clinical symptomatological stage 5 (G1H-G93A transgenic mice [1]; [6]): 1.8±0.4 days
day of onset (G1H-G93A transgenic mice [1]; [7]): 99.8 ± 2.4 days
disease period (G1H-G93A transgenic mice [1]; [7]): 23.9 ± 1.7 days
survival period (G1H-G93A transgenic mice [1]; [7]): 122.7 ± 2.1 days
time period of clinical symptomatological stage 1 (G1H-G93A transgenic mice [1]; [7]): 7.3±0.7 days
time period of clinical symptomatological stage 2 (G1H-G93A transgenic mice [1]; [7]): 6.0±0.7 days
time period of clinical symptomatological stage 3 (G1H-G93A transgenic mice [1]; [7]): 5.3±0.9 days
time period of clinical symptomatological stage 4 (G1H-G93A transgenic mice [1]; [7]): 3.5±0.5 days
time period of clinical symptomatological stage 5 (G1H-G93A transgenic mice [1]; [7]): 1.8±0.4 days
Extension reflex test score (G1H-G93A transgenic mice [2]; 70th day after birth): 0.0±0.0
Extension reflex test score (G1H-G93A transgenic mice [2]; 75th day after birth): 0.0±0.0
Extension reflex test score (G1H-G93A transgenic mice [2]; 80th day after birth): 0.0±0.0
Extension reflex test score (G1H-G93A transgenic mice [2]; 85th day after birth): 0.0±0.0
Extension reflex test score (G1H-G93A transgenic mice [2]; 90th day after birth): 0.0±0.0
Extension reflex test score (G1H-G93A transgenic mice [2]; 95th day after birth): 0.0±0.0
Extension reflex test score (G1H-G93A transgenic mice [2]; 100th day after birth): 0.0±0.0
Extension reflex test score (G1H-G93A transgenic mice [2]; 105th day after birth): 0.0±0.0
effect in extension reflex test as compared to placebo group (G1H-G93A transgenic mice [2]; 105th, 110th, 115th and 120th day, 5 mg/kg oral daily from 80th day after birth, Mann-Whitney's U test): significant effects
Extension reflex test score (G1H-G93A transgenic mice [2]; 110th day after birth): 0.1±0.3
Extension reflex test score (G1H-G93A transgenic mice [2]; 115th day after birth): 0.5±0.5
Extension reflex test score (G1H-G93A transgenic mice [2]; 120th day after birth): 0.9±0.7
Extension reflex test score (G1H-G93A transgenic mice [2]; 125th day after birth): 1.5±0.5
Extension reflex test score (G1H-G93A transgenic mice [2]; 130th day after birth): 1.9±0.3
Extension reflex test score (G1H-G93A transgenic mice [2]; 135th day after birth): 2.0±0.0
Extension reflex test score (G1H-G93A transgenic mice [2]; 140th day after birth): 2.0±0.0
Footprint test score (G1H-G93A transgenic mice [3]; 70th day after birth): 0.0±0.0
Footprint test score (G1H-G93A transgenic mice [3]; 75th day after birth): 0.0±0.0
Footprint test score (G1H-G93A transgenic mice [3]; 80th day after birth): 0.0±0.0
Footprint test score (G1H-G93A transgenic mice [3]; 85th day after birth): 0.0±0.0
Footprint test score (G1H-G93A transgenic mice [3]; 90th day after birth): 0.0±0.0
Footprint test score (G1H-G93A transgenic mice [3]; 95th day after birth): 0.0±0.0
Footprint test score (G1H-G93A transgenic mice [3]; 100th day after birth): 0.0±0.0
Footprint test score (G1H-G93A transgenic mice [3]; 105th day after birth): 0.0±0.0
Footprint test score (G1H-G93A transgenic mice [3]; 110th day after birth): 0.1±0.3
Footprint test score (G1H-G93A transgenic mice [3]; 115th day after birth): 0.6±0.7
Footprint test score (G1H-G93A transgenic mice [3]; 120th day after birth): 1.8±0.9
Footprint test score (G1H-G93A transgenic mice [3]; 125th day after birth): 2.8±0.4
Footprint test score (G1H-G93A transgenic mice [3]; 130th day after birth): 3.4±0.5
Footprint test score (G1H-G93A transgenic mice [3]; 135th day after birth): 3.9±0.3
Footprint test score (G1H-G93A transgenic mice [3]; 140th day after birth): 4.0±0.0
